Assay results published in patent US10647669B2, “Composition containing lutein/lutein ester and applications thereof” (priority 2016, dated 2020).

Assay: Effect of pH on the stability of lutein/lutein ester (absorbance of acetone aqueous solutions)
Assay type: physicochemical
Conditions: for Absorbance value: acetone aqueous solution; for Retention: after placing for 96 h at pH 1.5; for Change of absorbance values: under strong acid conditions
Description: Effect of pH on the Stability of Lutein/Lutein Ester The acetone aqueous solutions of lutein and lutein ester with pH 1.5 and pH 3 were prepared respectively, and the absorbance values at different time period are shown as follows: […]

Absorbance value (pH 1.5, 0 h) | Absorbance value (pH 1.5, 12 h) | Absorbance value (pH 1.5, 24 h) | Absorbance value (pH 1.5, 36 h) | Absorbance value (pH 1.5, 48 h) | Absorbance value (pH 1.5, 96 h) | Absorbance value (pH 3.0, 0 h) | Absorbance value (pH 3.0, 12 h) | Absorbance value (pH 3.0, 24 h) | Absorbance value (pH 3.0, 36 h) | Absorbance value (pH 3.0, 48 h) | Absorbance value (pH 3.0, 96 h) | Retention [%] | Change of absorbance values | Compound
0.843 | 0.559 | 0.452 | 0.368 | 0.267 | 0.151 | 0.845 | 0.566 | 0.495 | 0.428 | 0.341 | 0.268 | 17.80 | decrease significantly | CC1=C[C@H](O)CC(C)(C)[C@H]1/C=C/C(C)=C/C=C/C(C)=C/C=C/C=C(C)/C=C/C=C(C)/C=C/C1=C(C)C[C@@H](O)CC1(C)C [Lutein, lutein]
0.844 | 0.588 | 0.466 | 0.377 | 0.259 | 0.155 | 0.837 | 0.597 | 0.502 | 0.439 | 0.356 | 0.274 | 18.36 | decrease significantly | lutein ester
